Four compounds from patent US11141452B2, “Bifunctional compounds for relief of pain comprising an opioid receptor agonist moiety and a NK1 receptor antagonist moiety and methods for treating pain” (THE ARIZONA BOARD OF REGENTS ON BEHALF OF THE UNIVERSITY OF …, priority 2014, dated 2021) can be followed below.

Usually Ki stands for a measure of affinity in units of concentration, obtained from inhibition or displacement. The low end stands for a stronger hold on the target, the high end for a looser hold on the target. For orientation: Kb means the equilibrium dissociation constant of an antagonist, usually derived from a functional assay. A high value points to lower antagonist affinity.

In test [1] the target is MOR. Briefly: Radioligand binding assay at μ opioid receptor. The settings on record: for Log[IC50±] (μ): log IC50 ± error; for Ki^μ/Ki^δ: ratio of binding affinities MOR/DOR. The method, then: (§1) Binding affinities of these ligands were measured on radioligand binding assays. […] ([43]).
For test [2], the target named is DOR (Homo sapiens, UniProt P41143). Briefly: Radioligand binding assay at δ opioid receptor. The settings on record: for Ki: Ki^δ (nM). The protocol: as §1
In the next test the target is T1, hNK1 (Homo sapiens, UniProt P25103).
T1 construct: expressed in transfected cells; host or cells: CHO
Briefly: hNK1/CHO cell membrane radioligand binding assay ([3H]SP). The conditions noted are these: for Ki: Ki^hNK1 (nM), hNK1/CHO membranes, [3H]SP; for Ki^hNK1/Ki^rNK1: ratio human/rat NK1.

The target in the next test is rNK1 (Rattus norvegicus, UniProt P14600). Briefly: Radioligand binding assay at rat NK1 receptor. The settings on record: Ki^rNK1 (nM). The method, then:
as §1

Test [3] has as its system MOR. Briefly: Guinea pig isolated ileum (GPI) functional assay. It counts as cell-based.
Test [4] addresses T2, DOR (Mus musculus, UniProt P32300).
T2 construct: Male ICR mice under CO2 anesthesia were sacrificed by cervical dislocation and the vasa differentia removed; from tissue; host or cells: mouse vas deferens (ICR mice)
Briefly: Mouse isolated vas deferens (MVD) functional assay. It counts as cell-based. The settings on record: MVD (DOR) IC50 (nM), agonist activity, electrically stimulated tissue.

The next test addresses T3, NK1R (Cavia porcellus, UniProt P30547).
T3 construct: The longitudinal muscle with myenteric plexus (LMMP) was carefully separated from the circular muscle; from tissue; host or cells: guinea pig ileum longitudinal muscle with myenteric plexus
Briefly: GPI/LMMP functional assay at NK1R (agonist and antagonist testing). It counts as cell-based, guinea pig. The conditions noted are these: for Kb: GPI/LMMP (NK1R) Ke (nM) ± S.E.M., antagonist activity; for GPI/LMMP (NK1R) Agonist: agonist activity at the concentration in the cell.

Where [5] appears, read: agonist activity, electrically stimulated tissue, read-out: GPI (MOR) IC50.
The mark [6] stands for this setting: head of Table IX, read-out: GPI (MOR) ID50.

Where “and” joins values, the source holds several entries; their conditions need not be identical. Identical values can stand only once. Like-named read-outs stand apart in the source and are kept apart here. Non-standard residues stand in square brackets, D forms with d. Residues, ends and D or L forms follow the SMILES beside them. *: point of attachment. NH(3,5-(CF3)2-benzyl) = FC(F)(F)c1cc(CN*)cc(C(F)(F)F)c1; NMePhe(4-F) = CN[C@@H](Cc1ccc(F)cc1)C(=O)O; Dmt = Cc1cc(O)cc(C)c1C[C@H](N)C(=O)O; NMeF = CN[C@@H](Cc1ccccc1)C(=O)O

T2 sequence (P32300 whole entry): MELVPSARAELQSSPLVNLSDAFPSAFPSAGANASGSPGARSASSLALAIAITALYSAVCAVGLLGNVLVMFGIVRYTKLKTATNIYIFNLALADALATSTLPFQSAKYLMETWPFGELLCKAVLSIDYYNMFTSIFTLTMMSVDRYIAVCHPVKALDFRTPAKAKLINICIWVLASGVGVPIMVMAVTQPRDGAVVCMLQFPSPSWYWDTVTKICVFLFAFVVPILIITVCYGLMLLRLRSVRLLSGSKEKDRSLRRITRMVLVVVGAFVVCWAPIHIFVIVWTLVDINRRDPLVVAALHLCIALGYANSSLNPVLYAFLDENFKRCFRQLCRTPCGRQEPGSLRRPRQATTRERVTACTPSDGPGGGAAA
T3 sequence (P30547 whole entry): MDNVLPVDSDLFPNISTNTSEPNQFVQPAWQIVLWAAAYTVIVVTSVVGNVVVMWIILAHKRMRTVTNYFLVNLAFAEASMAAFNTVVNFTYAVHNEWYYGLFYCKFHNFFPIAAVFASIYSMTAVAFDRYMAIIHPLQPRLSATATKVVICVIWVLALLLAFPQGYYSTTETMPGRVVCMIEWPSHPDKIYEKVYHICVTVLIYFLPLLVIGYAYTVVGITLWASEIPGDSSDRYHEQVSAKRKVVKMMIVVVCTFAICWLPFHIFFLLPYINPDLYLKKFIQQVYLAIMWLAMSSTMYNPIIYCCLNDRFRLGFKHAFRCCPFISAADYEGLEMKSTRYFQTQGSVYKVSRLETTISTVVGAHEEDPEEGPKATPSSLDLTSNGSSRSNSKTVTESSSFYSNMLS
Chain of rNK1 (P14600 whole entry): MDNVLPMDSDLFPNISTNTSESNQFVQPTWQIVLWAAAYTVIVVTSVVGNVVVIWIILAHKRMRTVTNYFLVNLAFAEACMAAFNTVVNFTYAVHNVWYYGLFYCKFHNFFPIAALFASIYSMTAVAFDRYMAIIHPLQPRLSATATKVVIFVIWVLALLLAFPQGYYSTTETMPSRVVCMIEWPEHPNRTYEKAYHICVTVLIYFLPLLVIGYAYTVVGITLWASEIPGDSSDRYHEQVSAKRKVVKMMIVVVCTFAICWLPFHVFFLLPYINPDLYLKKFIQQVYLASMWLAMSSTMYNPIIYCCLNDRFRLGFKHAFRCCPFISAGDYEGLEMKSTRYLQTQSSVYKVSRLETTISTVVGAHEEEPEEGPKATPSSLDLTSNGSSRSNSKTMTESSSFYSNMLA
T1 sequence (P25103 whole entry): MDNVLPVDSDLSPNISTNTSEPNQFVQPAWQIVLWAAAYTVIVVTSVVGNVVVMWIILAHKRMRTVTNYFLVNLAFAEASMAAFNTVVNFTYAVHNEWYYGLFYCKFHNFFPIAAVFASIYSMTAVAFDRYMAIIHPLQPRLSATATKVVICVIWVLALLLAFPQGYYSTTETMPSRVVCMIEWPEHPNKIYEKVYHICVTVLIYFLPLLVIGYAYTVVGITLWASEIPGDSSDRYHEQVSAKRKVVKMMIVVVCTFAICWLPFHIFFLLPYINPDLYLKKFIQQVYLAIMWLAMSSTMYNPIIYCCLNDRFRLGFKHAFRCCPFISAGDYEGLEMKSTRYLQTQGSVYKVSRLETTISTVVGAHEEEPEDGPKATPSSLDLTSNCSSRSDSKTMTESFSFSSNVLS
Chain of DOR (Homo sapiens, UniProt P41143) (P41143 whole entry): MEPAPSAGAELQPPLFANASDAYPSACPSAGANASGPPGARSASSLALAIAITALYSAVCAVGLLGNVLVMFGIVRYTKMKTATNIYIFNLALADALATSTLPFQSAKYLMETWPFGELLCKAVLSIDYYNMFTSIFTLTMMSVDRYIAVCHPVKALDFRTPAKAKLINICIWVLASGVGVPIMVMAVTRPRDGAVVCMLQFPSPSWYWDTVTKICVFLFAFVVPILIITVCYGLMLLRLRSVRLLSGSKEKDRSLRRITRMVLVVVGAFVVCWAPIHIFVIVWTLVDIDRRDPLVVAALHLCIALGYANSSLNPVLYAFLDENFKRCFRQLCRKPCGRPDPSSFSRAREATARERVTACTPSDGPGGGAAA

With `Cc1cc(O)cc(C)c1C[C@H](N)C(=O)N[C@H](C)C(=O)NCC(=O)N(C)[C@@H](Cc1ccccc1)C(=O)N[C@@H](CO)C(=O)NCC(=O)N1CCC[C@H]1C(=O)N[C@@H](CC(C)C)C(=O)N[C@@H](Cc1c[nH]c2ccccc12)C(=O)NCc1cc(C(F)(F)F)cc(C(F)(F)F)c1` [AKG-CRA-137] (H-[Dmt][dA]G[NMeF]SGPLW-{NH(3,5-(CF3)2-benzyl)}), the Ki was 0.7 nM on MOR [1]; 1 nM on DOR [2]; 4.9 nM and 4.76 nM on hNK1; 87.5 nM at rNK1. At MOR [1], the “Log[IC50±] (μ)” value is −8.82 ± 0.26. Moreover, the IC50 on DOR [2] is 2.69 nM; in the test on MOR [3] (setting [5]), 7.9 nM; in the test on MOR [3] (setting [6]) it was 7.87 ± 2.57 nM; on DOR [4] it was 16.4 ± 5.17 nM. The “Ki^hNK1/Ki^rNK1” value on hNK1 was 1/18. Moreover, the “GPI/MVD IC50 ratio” value with MOR [3] was 1/2. At NK1R, the Kb came to 26.3 ± 5.7 nM. Besides, the “GPI/LMMP (NK1R) Agonist” value on NK1R is given as “None at 100 nM”.

As for `Cc1cc(O)cc(C)c1C[C@H](N)C(=O)N[C@H](C)C(=O)NCC(=O)N(C)[C@@H](Cc1ccc(F)cc1)C(=O)N[C@@H](CO)C(=O)N1CCC[C@H]1C(=O)N[C@@H](CC(C)C)C(=O)N[C@@H](Cc1c[nH]c2ccccc12)C(=O)NCc1cc(C(F)(F)F)cc(C(F)(F)F)c1` [AKG135] (H-[Dmt][dA]G[NMePhe(4-F)]SPLW-{NH(3,5-(CF3)2-benzyl)}; N-terminus assumed), the Ki turned out to be 0.5 nM on MOR [1], 0.5 nM at DOR [2], 7.26 ± 0.59 nM on hNK1 and 51.7 ± 16.2 nM at rNK1. At MOR [1], the “Log[IC50±] (μ)” value is −8.93 ± 0.09. The “Ki^μ/Ki^δ” value on MOR [1] is recorded as 1/1. Also, the IC50 is 1 nM at DOR [2], 23 nM with MOR [3] (setting [5]), 23.4 ± 4.74 nM in the test on MOR [3] (setting [6]) and 15.4 ± 5.4 nM at DOR [4]. Besides, the “Ki^hNK1/Ki^rNK1” value on hNK1 is 1/7. In the test on MOR [3], the “GPI/MVD IC50 ratio” value is recorded as 2/1. The compound further returned a Kb at NK1R of 28.7 ± 11.1 nM. For the same compound, the “GPI/LMMP (NK1R) Agonist” value on NK1R is listed as “None at 100 nM”.

Regarding `CC(C)C[C@H](NC(=O)[C@@H]1CCCN1C(=O)[C@H](CO)NC(=O)[C@H](Cc1ccc(F)cc1)N(C)C(=O)CNC(=O)[C@@H](C)NC(=O)[C@@H](N)Cc1ccc(O)cc1)C(=O)N[C@@H](Cc1c[nH]c2ccccc12)C(=O)NCc1cc(C(F)(F)F)cc(C(F)(F)F)c1` [AKG134] (H-Y[dA]G[NMePhe(4-F)]SPLW-{NH(3,5-(CF3)2-benzyl)}), at MOR [1], the affinity, expressed as Ki, was 2 nM; the “Log[IC50±] (μ)” value is listed as −8.27 ± 0.11; the “Ki^μ/Ki^δ” value is 1/4. At DOR [2], this compound had an IC50 of 14.5 nM and a Ki of 7 nM. Moreover, on hNK1, the Ki was determined as 7.95 ± 0.87 nM and the “Ki^hNK1/Ki^rNK1” value is listed as 1/6. On rNK1, this compound showed a Ki of 50.2 ± 16.9 nM. For the same compound, the “GPI/MVD IC50 ratio” value in the test on MOR [3] is reported as 21/1. For the same compound, in the test with MOR [3] (setting [6]), the IC50 was 184 ± 30.9 nM. On DOR [4], this compound had an IC50 of 8.94 ± 0.795 nM. Moreover, on NK1R, the Kb came to 1.86 ± 0.43 nM and the “GPI/LMMP (NK1R) Agonist” value is on record as “None at 30 nM”.

`CC(C)C[C@H](NC(=O)[C@@H]1CCCN1C(=O)CNC(=O)[C@H](Cc1ccc(F)cc1)N(C)C(=O)CNC(=O)[C@@H](C)NC(=O)[C@@H](N)Cc1ccc(O)cc1)C(=O)N[C@@H](Cc1c[nH]c2ccccc12)C(=O)NCc1cc(C(F)(F)F)cc(C(F)(F)F)c1` [AKG131, H-Tyr-D-Ala-Gly-NMePhe(4-F)-Gly-Pro-Leu-Trp-NH-Bn(3′,5′-(CF3)2)] (H-Y[dA]G[NMePhe(4-F)]GPLW-{NH(3,5-(CF3)2-benzyl)}): the “Log[IC50±] (μ)” value at MOR [1] is listed as −6.40 ± 0.32. In addition, on MOR [1], the “Ki^μ/Ki^δ” value was 11/1. Also, the IC50 is 38 nM at DOR [2]; 63 nM and 62.5 nM with MOR [3] (setting [5]); 30 nM and 29.7 nM at DOR [4]. In addition, the Ki was 17 nM on DOR [2], 2 nM at hNK1 and 89 nM on rNK1. Moreover, the “Ki^hNK1/Ki^rNK1” value at hNK1 is reported as 1/8. In addition, the “GPI/MVD IC50 ratio” value in the test on MOR [3] is on record as 2/1. Besides, at NK1R, the Kb amounted to 35.8 ± 10.8 nM. In addition, on NK1R, the “GPI/LMMP (NK1R) Agonist” value is listed as “None at 100 nM”.
